# Laboratory results published in PubChem BioAssay AID2060507 (Molecular Pharmacology Branch, DTP, NCI, 2025).
# Tested on: 519858-162-T-J1-PDC complex spheroid viability
# Test: Anticancer human tumor 519858-162-T-J1-PDC patient-derived colon adenocarcinoma cell line growth inhibition [GQUAD]
# Conditions: for IC50: curve of first compound; for viability, T/C: stronger effect = lower value
# Method in brief: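 Tumor cells were grown as complex spheroids with HUVEC endothelial cells and mesenchymal stem cells as stroma. G-quadruplex stabilizers were combined with targeted agents over half-log dilutions from near the clinical Cmax, or from 10 microM.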
# [1] = second compound 0.0316 µM, first compound 0.0316 µM
# [2] = second compound 0.0316 µM, first compound 0.316 µM
# [3] = second compound 0.1 µM, first compound 0.0316 µM
# [4] = second compound 0.1 µM, first compound 0.316 µM
# [5] = second compound 0.316 µM, first compound 0.0316 µM
# [6] = second compound 0.316 µM, first compound 0.316 µM
# [7] = second compound 1 µM, first compound 0.0316 µM
# [8] = second compound 1 µM, first compound 0.316 µM
# [9] = second compound 3.16 µM, first compound 0.0316 µM
# [10] = second compound 3.16 µM, first compound 0.316 µM
# [11] = second compound 10 µM, first compound 0.0316 µM
# [12] = second compound 10 µM, first compound 0.316 µM
# 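Also: spheroids exposed to compounds for 7 days.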
# 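For viability, T/C in this document: 100% = DMSO vehicle control viability.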
smiles,measurement,setting,value
Cc1[nH]c2ccccc2c1CCNCc1ccc(/C=C/C(=O)NO)cc1 + Cc1[nH]c2ccc(F)cc2c1-c1nc2c3cccnc3c3ncccc3c2[nH]1,IC50,second compound 0.0316 µM,> 316 nM
same,IC50,second compound 0.1 µM,91 nM
same,IC50,second compound 0.316 µM,165 nM
same,IC50,second compound 1 µM,> 316 nM
same,IC50,second compound 3.16 µM,> 316 nM
same,IC50,second compound 10 µM,134 nM
same,"viability, T/C","second compound 0.0316 µM, first compound 0.000999 µM",99.7%
same,"viability, T/C","second compound 0.0316 µM, first compound 0.00316 µM",117%
same,"viability, T/C","second compound 0.0316 µM, first compound 0.00999 µM",115%
same,"viability, T/C",[1],120%
same,"viability, T/C","second compound 0.0316 µM, first compound 0.0999 µM",64.1%
same,"viability, T/C",[2],49.7%
same,"viability, T/C","second compound 0.1 µM, first compound 0.000999 µM",82.1%
same,"viability, T/C","second compound 0.1 µM, first compound 0.00316 µM",128%
same,"viability, T/C","second compound 0.1 µM, first compound 0.00999 µM",117%
same,"viability, T/C",[3],88.3%
same,"viability, T/C","second compound 0.1 µM, first compound 0.0999 µM",42%
same,"viability, T/C",[4],51.3%
same,"viability, T/C","second compound 0.316 µM, first compound 0.000999 µM",113%
same,"viability, T/C","second compound 0.316 µM, first compound 0.00316 µM",67.8%
same,"viability, T/C","second compound 0.316 µM, first compound 0.00999 µM",76%
same,"viability, T/C",[5],113%
same,"viability, T/C","second compound 0.316 µM, first compound 0.0999 µM",59.8%
same,"viability, T/C",[6],37.2%
same,"viability, T/C","second compound 1 µM, first compound 0.000999 µM",107%
same,"viability, T/C","second compound 1 µM, first compound 0.00316 µM",54.1%
same,"viability, T/C","second compound 1 µM, first compound 0.00999 µM",86.5%
same,"viability, T/C",[7],73.3%
same,"viability, T/C","second compound 1 µM, first compound 0.0999 µM",54.5%
same,"viability, T/C",[8],53.2%
same,"viability, T/C","second compound 3.16 µM, first compound 0.000999 µM",65.3%
same,"viability, T/C","second compound 3.16 µM, first compound 0.00316 µM",56.5%
same,"viability, T/C","second compound 3.16 µM, first compound 0.00999 µM",64.8%
same,"viability, T/C",[9],54%
same,"viability, T/C","second compound 3.16 µM, first compound 0.0999 µM",70.2%
same,"viability, T/C",[10],46.7%
same,"viability, T/C","second compound 10 µM, first compound 0.000999 µM",76.9%
same,"viability, T/C","second compound 10 µM, first compound 0.00316 µM",77.7%
same,"viability, T/C","second compound 10 µM, first compound 0.00999 µM",55%
same,"viability, T/C",[11],65.5%
same,"viability, T/C","second compound 10 µM, first compound 0.0999 µM",52.4%
same,"viability, T/C",[12],43.2%
O=C(NO)c1cnc(N2CCN(S(=O)(=O)c3ccc4ccccc4c3)CC2)nc1 + Cc1[nH]c2ccc(F)cc2c1-c1nc2c3cccnc3c3ncccc3c2[nH]1,IC50,second compound 0.0316 µM,353 nM
same,IC50,second compound 0.1 µM,242 nM
same,IC50,second compound 0.316 µM,311 nM
same,IC50,second compound 1 µM,251 nM
same,IC50,second compound 3.16 µM,204 nM
same,IC50,second compound 10 µM,195 nM
same,"viability, T/C",[1],82.3%
same,"viability, T/C","second compound 0.0316 µM, first compound 0.1 µM",82.8%
same,"viability, T/C",[2],53.8%
same,"viability, T/C","second compound 0.0316 µM, first compound 1 µM",10%
same,"viability, T/C","second compound 0.0316 µM, first compound 3.16 µM",0.42%
same,"viability, T/C","second compound 0.0316 µM, first compound 10 µM",0.52%
same,"viability, T/C",[3],102%
same,"viability, T/C","second compound 0.1 µM, first compound 0.1 µM",102%
same,"viability, T/C",[4],34.3%
same,"viability, T/C","second compound 0.1 µM, first compound 1 µM",8.48%
same,"viability, T/C","second compound 0.1 µM, first compound 3.16 µM",0.31%
same,"viability, T/C","second compound 0.1 µM, first compound 10 µM",0.42%
same,"viability, T/C",[5],85.4%
same,"viability, T/C","second compound 0.316 µM, first compound 0.1 µM",95.8%
same,"viability, T/C",[6],48.9%
same,"viability, T/C","second compound 0.316 µM, first compound 1 µM",8.61%
same,"viability, T/C","second compound 0.316 µM, first compound 3.16 µM",0.35%
same,"viability, T/C","second compound 0.316 µM, first compound 10 µM",1.29%
same,"viability, T/C",[7],75.9%
same,"viability, T/C","second compound 1 µM, first compound 0.1 µM",77.4%
same,"viability, T/C",[8],43%
same,"viability, T/C","second compound 1 µM, first compound 1 µM",7.91%
same,"viability, T/C","second compound 1 µM, first compound 3.16 µM",0.49%
same,"viability, T/C","second compound 1 µM, first compound 10 µM",1.27%
same,"viability, T/C",[9],83%
same,"viability, T/C","second compound 3.16 µM, first compound 0.1 µM",87.8%
same,"viability, T/C",[10],28.2%
same,"viability, T/C","second compound 3.16 µM, first compound 1 µM",5.99%
same,"viability, T/C","second compound 3.16 µM, first compound 3.16 µM",1.44%
same,"viability, T/C","second compound 3.16 µM, first compound 10 µM",0.36%
same,"viability, T/C",[11],64.7%
same,"viability, T/C","second compound 10 µM, first compound 0.1 µM",69.7%
same,"viability, T/C",[12],36.7%
same,"viability, T/C","second compound 10 µM, first compound 1 µM",13.9%
same,"viability, T/C","second compound 10 µM, first compound 3.16 µM",0.79%
same,"viability, T/C","second compound 10 µM, first compound 10 µM",0.64%
